Measurements from patent US8008506B2, “Indazole compounds” (priority 2008, dated 2011).
In brackets after ≈: the same amount, converted by molar mass.

Experiments:
[1] = Test Example 12: solubility in physiological saline; type: physicochemical; details: saline or isotonic, thermodynamic from solid, 37° C., one hour, 1 mg/mL nominal
Experimental: A test compound is precisely weighed to 500 μg, and a hydrochloric acid buffer solution at pH 1.2 is added thereto to a concentration of 1 mg/mL. The solution is shaken at 37° C. for one hour. After the shaking, the entire amount of the solution is transferred into a filter tube, and the solution is filtered by centrifugation. The filtrate is analyzed by HPLC, and the solubility of the test compound is determined by dividing the peak area value of the filtrate by the peak area value of the standard solution.
Test on Solubility in Physiological Saline
The solubility of a test compound is determined by performing the same test as that performed in Test Example 11, except that the hydrochloric acid buffer solution at pH 1.2 is changed to physiological saline.

[2] = Test Example 14: stability in phosphate buffer solution at pH 6.8; type: physicochemical
Experimental: A test compound is prepared in pure water to be in the saturated state. This solution is shaken for one hour at room temperature. After the shaking, the entire amount of the solution is transferred into a filter tube, and the solution is filtered by centrifugation. The filtrate is analyzed by HPLC immediately after filtration, 24 hours after filtration, and 48 hours after filtration. The stability of the test compound is determined using a calibration curve, based on the peak area value.
Test on Stability in Phosphate Buffer Solution at pH 6.8
The stability of a test compound is determined by performing the same test as that performed in Test Example 13, except that the pure water is changed to a phosphate buffer solution at pH 6.8.

CC(C)c1n[nH]c2cc(OCCNC[C@H](O)c3cccc(NS(C)(=O)=O)c3)ccc12 [Example 1, (R)-N-(3-(1-hydroxy-2-(2-(3-isopropylindazol-6-yloxy)ethylamino)ethyl)phenyl)methanesulfonamide] showed a solubility at 1 h [1] of at least 1000 µg/mL, an HPLC area percent ([2]; after 24 hours) of 99.9% and an HPLC area percent ([2]; after 48 hours) of 100%. For the same compound, the HPLC area percent ([2]; immediately after filtration) was 99.8%.

Compound CCc1n[nH]c2cc(OCCNC[C@H](O)c3cccc(NS(C)(=O)=O)c3)ccc12 [Example 2, (R)-N-(3-(1-hydroxy-2-(2-(3-ethylindazol-6-yloxy)ethylamino)ethyl)phenyl)methanesulfonamide] has a solubility at 1 h [1] of at least 1000 µg/mL, an HPLC area percent ([2]; after 24 hours) of 98.2% and an HPLC area percent ([2]; after 48 hours) of 98.2%. For the same compound, the HPLC area percent ([2]; immediately after filtration) was 98.2%.

In the case of CS(=O)(=O)Nc1cccc([C@@H](O)CNCCOc2ccc3c(C(F)(F)F)n[nH]c3c2)c1 [Example 4, (R)-N-(3-(1-hydroxy-2-(2-(3-trifluoromethylindazol-6-yloxy)ethylamino)ethyl)phenyl)methanesulfonamide], the solubility at 1 h [1] was 932 µg/mL (≈ 2030 µM), the HPLC area percent ([2]; after 24 hours) was 99.6% and the HPLC area percent ([2]; after 48 hours) was 99.6%. For the same compound, the HPLC area percent ([2]; immediately after filtration) was 99.6%.

CN(C)C(=O)CCc1n[nH]c2cc(OCCNC[C@H](O)c3cccc(NS(C)(=O)=O)c3)ccc12 [Example 5, (R)-3-(6-(2-(2-hydroxy-2-(3-(methylsulfonamido)phenyl)ethylamino)ethoxy)-indazol-3-yl)-N,N-dimethylpropanamide] gave a solubility at 1 h [1] of at least 1000 µg/mL.

Compound COCc1n[nH]c2cc(OCCNC[C@H](O)c3cccc(NS(C)(=O)=O)c3)ccc12 [Example 6, (R)-N-(3-(1-hydroxy-2-(2-(3-methoxymethylindazol-6-yloxy)ethylamino)ethyl)phenyl)methanesulfonamide] has a solubility at 1 h [1] of 993 µg/mL (≈ 2290 µM).
